Tests used:
hAng-1-WT = molecular target: T1, hAng-1-WT (Homo sapiens, UniProt Q15389); assay: SPR binding to full-length wild-type human Ang-1 (preferential binding)
T1 construct: Full-length wild-type human Ang-1 or Ang-2 at a concentration of 25 nM or 0.78 nM
T1 sequence (Q15389 16-498): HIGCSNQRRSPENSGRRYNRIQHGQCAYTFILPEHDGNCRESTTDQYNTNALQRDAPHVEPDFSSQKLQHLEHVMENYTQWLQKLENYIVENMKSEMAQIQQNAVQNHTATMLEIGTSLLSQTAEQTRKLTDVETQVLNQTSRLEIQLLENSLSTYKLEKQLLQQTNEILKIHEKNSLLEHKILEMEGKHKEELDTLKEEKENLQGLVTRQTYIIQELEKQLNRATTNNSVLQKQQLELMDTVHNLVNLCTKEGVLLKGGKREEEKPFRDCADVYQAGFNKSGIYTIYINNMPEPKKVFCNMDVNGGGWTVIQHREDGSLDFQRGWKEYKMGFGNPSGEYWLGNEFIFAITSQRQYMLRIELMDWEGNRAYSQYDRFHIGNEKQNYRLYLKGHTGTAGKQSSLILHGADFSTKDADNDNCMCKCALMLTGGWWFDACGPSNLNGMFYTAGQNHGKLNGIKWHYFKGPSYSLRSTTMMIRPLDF
Description: Binding experiments (plasmon resonance assays) were conducted to ascertain whether selected antibodies bound to both Ang-2 and Ang-1 or if they preferentially bound to Ang-2 only. Each selected antibody or control construct was captured at a flow rate of 40 μL/min for 1 minute on a goat anti-human IgG polyclonal antibody surface created through direct chemical coupling to a BIACORE™ chip to form a captured antibody surface. Full-length wild-type human Ang-1 or Ang-2 at a concentration of 25 nM or 0.78 nM were injected over the captured antibody surface at a flowrate of 60 μL/min for 3 minutes, and antigen-antibody dissociation was monitored in real time for 20 minutes at either 25° C. or 37° C.

[1] = system: COLO 205 (Human Colorectal Adenocarcinoma Cell Line) tumors; assay: COLO 205 mouse tumor model; assay type: in vivo, mice
Description: Briefly, 2×10^6COLO 205 cells in 100 μl of serum-free medium were injected subcutaneously into the flank of 6-8 week old male NCr nude mice (Taconic, Hudson, N.Y.). After tumor volumes reached an average of about 150 mm^3, mice were randomized into groups for treatment with antibody or Fc protein. Mice in each treatment group were administered an anti-Ang-2 antibody or Fc protein at a concentration of 4 mg/kg via intraperitoneal injection twice per week for approximately two weeks. Tumor volumes were measured twice per week over the course of the experiment and tumor weights were measured upon excision of tumors at the conclusion of the experiment. Averages (mean+/−standard deviation) of tumor weight and growth were calculated for each treatment group. “Avg. Tumor Growth” represents the average growth from the time of treatment initiation (when tumors were approximately 150 mm^3). Percent decrease of tumor weight and growth are calculated from comparison to Fc protein measurements.
A similar experiment was carried out to assess the effect of H1H685P, in particular, on COLO 205 tumor growth. Briefly, 2×10^6 COLO 205 cells in 100 μl of serum-free medium were implanted subcutaneously into the right hind flank of 9-11 week-old male SCID CB17 mice. When the tumors reached ˜125 mm^3, mice were randomized into 5 groups (n=7-8 mice/group) and treated twice per week with Fc protein (15 mg/kg), H1H685P (5 or 25 mg/kg) or Control II (5 or 25 mg/kg) for a period of 19 days. Tumor volumes were measured twice per week over the course of the experiment and tumor weights were measured upon excision of tumors at the end of the experiment. Averages of tumor weight and growth from the beginning of treatment were calculated for each group. Percent decrease of tumor weight and growth are calculated from comparison to the Fc control group.
To determine the effect of combining an anti-Ang-2 antibody with a VEGF inhibitor on the growth of COLO 205 xenografts, 2×10^6 cells were implanted subcutaneously into the right hind flank of 6-8 week-old female SCID mice. When the tumors reached an average volume of ˜350 mm^3, mice were randomized into 4 groups (n=6 mice/group) and treated with: human Fc protein (7.5 mg/kg), H1H685P (5 mg/kg), VEGF Trap (see U.S. Pat. No. 7,087,411) (2.5 mg/kg) or the combination of H1H685P+VEGF Trap. Mice were given a total of 3 doses over 10 days of treatment. Tumor volumes were measured twice per week over the course of the experiment. Averages of tumor growth from the start of treatment (mean+/−standard deviation) were calculated for each treatment group. Percent decrease of tumor growth was calculated from comparison to the Fc control group.
To test the effect of H1H685P in combination with a chemotherapeutic agent on tumor growth, 2.5×10^6 COLO 205 tumor cells were implanted subcutaneously into the right hind flank of 8-9 week-old male SCID mice. When the tumors reached an average volume of ˜150 mm^3 (day 17 after implantation), mice were randomized into 4 groups (n=5 mice/group) and treated as follows: the first group was treated sc with 15 mg/kg hFc and intraperitoneally (ip) with 5-FU vehicle; the second group was treated sc with 15 mg/kg of H1H685P; the third group was treated ip with 75 mg/kg of 5-FU; the fourth group was treated with the combination of 15 mg/kg H1H685P sc plus 75 mg/kg 5-FU ip. Mice received a total of three treatments, administered every 3-4 days. Tumor volumes were measured twice per week over the course of the experiment. Average (mean+/−standard deviation) tumor growth from the beginning of treatment until day 38 was calculated for each group. Percent decrease of tumor growth was calculated from comparison to the control group.

[2] = COLO 205, SCID CB17 mice, 5 mg/kg twice per week, 19 days
[3] = COLO 205, SCID CB17 mice, 25 mg/kg twice per week, 19 days
[4] = COLO 205, female SCID mice, H1H685P 5 mg/kg, VEGF Trap 2.5 mg/kg, 3 doses over 10 days
[5] = COLO 205, male SCID mice, H1H685P 15 mg/kg sc, 5-FU 75 mg/kg ip, three treatments, until day 38

H1H685P: human anti-Ang-2 antibody, HCVR/LCVR SEQ ID NOs 18/20; also referred to as mAb1 [Antibody H1H685P]
KD, binding to hAng-1-WT (hAng-1-WT; 25° C.): No binding
ka, binding to hAng-1-WT (hAng-1-WT; 25° C.): No binding
kd, binding to hAng-1-WT (hAng-1-WT; 25° C.): No binding
KD, binding to hAng-1-WT (hAng-1-WT; 37° C.): No binding
ka, binding to hAng-1-WT (hAng-1-WT; 37° C.): No binding
kd, binding to hAng-1-WT (hAng-1-WT; 37° C.): No binding
Binding to Ang-1 (in words) (hAng-1-WT; SPR): does not bind to Ang-1
% Decrease in Tumor Growth [1, 2]: 45%
% Decrease in Tumor Weight [1, 2]: 43%
Avg Tumor Growth [1, 2]: 370 ± 114 mm^3
Avg Tumor Weight [1, 2]: 0.458 ± 0.125 g
% Decrease in Tumor Growth [1, 3]: 56%
% Decrease in Tumor Weight [1, 3]: 46%
Avg Tumor Growth [1, 3]: 295 ± 160 mm^3
Avg Tumor Weight [1, 3]: 0.430 ± 0.139 g
% Decrease in Tumor Growth [1, 4]: 80%
Avg Tumor Growth [1, 4]: 74 ± 77 mm^3
% Decrease in Tumor Growth [1, 5]: 29%
Avg Tumor Growth [1, 5]: 405 ± 80 mm^3
Anti-tumor activities in the COLO 205 mouse model (in words) ([1]; mouse, in vivo): substantial anti-tumor activities

Source: patent US9926369B2, “Methods for treating hepatocellular cancer by administering an anti-Ang-2 antibody” (Regeneron Pharmaceuticals, Inc., priority 2009, dated 2018)
